Values of other authors, collected in US20070072232A1, “Identification of genetic components of drug response” (Variagenics, Inc. a Delaware corporation, priority 2000, published 2007).
Counter-ions that a name gives are not always drawn.

Test system: Alzheimer's disease
Conditions: per PDR

Nc1c2c(nc3ccccc13)CCCC2 [Cognex, tacrine hydrochloride]
patients showing no change or minimal worsening of their disease (patients receiving Cognex for Alzheimer's disease): about 45% | Alzheimer's patients minimally improved (patients receiving Cognex): About 58% | patients much improved (patients receiving Cognex): about 2%
